Source: patent publication US8952024B2, “Herbicidal pyrimidone derivatives” (E I du Pont de Nemours and Company, priority 2009, dated 2015)

Tests used:
Assay type in all cases: in vivo
[1] = system: winter barley (Hordeum vulgare); experiment: Test B postemergence plant response; conditions: for Barley plant response rating (0 to 100 scale): 62 g ai/ha, postemergence, 0 is no effect, 100 is complete control; for Plant response rating, Barley: Postemergence
Summary of the method: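 Visual ratings from 0 (no effect) to 100 (complete control), made against controls 13–15 days after treatment, kept in a greenhouse. Compounds were applied postemergence to potted plants at the 1- to 4-leaf stage (2–18 cm).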

[2] = system: pigweed (Amaranthus retroflexus); experiment: Test A pre-/postemergence plant response; conditions: for Pigweed plant response rating: visual injury, 0 to 100 scale (0 no effect, 100 complete control), approx. ten days
Summary of the method: (§1)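 Injury was scored visually after roughly ten days against untreated controls, 0 = no effect, 100 = complete control. Test chemicals in a surfactant-containing non-phytotoxic solvent were sprayed either onto soil preemergence or onto one- to two-leaf, 2–10 cm plants postemergence.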

[3] = system: barnyardgrass (Echinochloa crus-galli); experiment: Test A pre-/postemergence plant response; conditions: for Barnyardgrass plant response rating: visual injury, 0 to 100 scale (0 no effect, 100 complete control), approx. ten days
Summary of the method: as §1

corn (Zea mays) = experiment: Test A pre-/postemergence plant response; conditions: for Corn plant response rating: visual injury, 0 to 100 scale (0 no effect, 100 complete control), approx. ten days
Summary of the method: as §1

[4] = system: giant foxtail (Setaria faberii); experiment: Test A pre-/postemergence plant response; conditions: for Foxtail, Giant plant response rating: visual injury, 0 to 100 scale (0 no effect, 100 complete control), approx. ten days
Summary of the method: as §1

[5] = system: wheat (Triticum aestivum); experiment: Test A pre-/postemergence plant response; conditions: for Wheat plant response rating: visual injury, 0 to 100 scale (0 no effect, 100 complete control), approx. ten days
Summary of the method: as §1

[6] = system: morningglory (Ipomoea spp.); experiment: Test A pre-/postemergence plant response; conditions: for Morningglory plant response rating: visual injury, 0 to 100 scale (0 no effect, 100 complete control), approx. ten days
Summary of the method: as §1

[7] = system: velvetleaf (Abutilon theophrasti); experiment: Test A pre-/postemergence plant response; conditions: for Velvetleaf plant response rating: visual injury, 0 to 100 scale (0 no effect, 100 complete control), approx. ten days
Summary of the method: as §1

[8] = system: large crabgrass (Digitaria sanguinalis); experiment: Test A pre-/postemergence plant response; conditions: for Crabgrass, Large plant response rating: visual injury, 0 to 100 scale (0 no effect, 100 complete control), approx. ten days
Summary of the method: as §1

[9] = system: barnyardgrass (Echinochloa crus-galli); experiment: Test B flooded paddy test; conditions: for Plant response rating, Barnyardgrass: Flood (flooded paddy test), 13 to 15 days; for Barnyardgrass plant response rating: Flood, 31 g ai/ha, scale 0 to 100 (0 no effect, 100 complete control)
Summary of the method: (§2)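 Visual scores run from 0 (no effect) to 100 (complete control), assigned by comparison with controls 13 to 15 days after treatment. Test compounds went straight into water standing 3 cm above the soil, around plants at the 2-leaf stage kept in a greenhouse.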

[10] = system: umbrella sedge (Cyperus difformis); experiment: Test B flooded paddy test; conditions: for Plant response rating, Sedge, Umbrella: Flood (flooded paddy test), 13 to 15 days; for Sedge, Umbrella plant response rating: Flood, 31 g ai/ha, scale 0 to 100 (0 no effect, 100 complete control)
Summary of the method: as §2

[11] = system: ducksalad (Heteranthera limosa); experiment: Test B flooded paddy test; conditions: for Plant response rating, Ducksalad: Flood (flooded paddy test), 13 to 15 days; for Ducksalad plant response rating: Flood, 31 g ai/ha, scale 0 to 100 (0 no effect, 100 complete control)
Summary of the method: as §2

rice (Oryza sativa) = experiment: Test B flooded paddy test; conditions: for Plant response rating, Rice: Flood (flooded paddy test), 13 to 15 days; for Rice plant response rating: Flood, 31 g ai/ha, scale 0 to 100 (0 no effect, 100 complete control)
Summary of the method: as §2

[12] = 31 g ai/ha, 0 to 100 scale (0 no effect, 100 complete control)
[13] = 125 g ai/ha, scale 0 to 100 (0 no effect, 100 complete control)
[14] = 250 g ai/ha, scale 0 to 100 (0 no effect, 100 complete control), 13 to 15 days
[15] = Postemergence, 125 g ai/ha, 0 to 100 scale where 0 is no effect and 100 is complete control
[16] = Preemergence, 125 g ai/ha, 0 to 100 scale, 0 = no effect, 100 = complete control
[17] = Preemergence, 500 g ai/ha, 0 to 100 scale, 0 = no effect, 100 = complete control
[18] = 250 g ai/ha, flooded paddy test, visual rating on 0 to 100 scale (0 no effect, 100 complete control) after 13 to 15 days
[19] = 62 g ai/ha, scale of 0 to 100 where 0 is no effect and 100 is complete control
[20] = 125 g ai/ha, scale 0 to 100, 0 is no effect, 100 is complete control

O=C1CCCC(O)=C1C(=O)c1cnc(-c2ccccc2)n(C2CCSCC2)c1=O [Compound 164]
Barley plant response rating (0 to 100 scale) ([1]; 13 to 15 days): 5
Plant response rating, Barley [1, 12]: 5
Plant response rating, Barley [1, 13]: 30
Plant response rating, Barley [1, 14]: 35
Plant response rating, Pigweed [2, 15]: 100
Pigweed plant response rating ([2]; Postemergence, 500 g ai/ha): 100
Plant response rating, Pigweed [2, 16]: 60
Plant response rating, Pigweed [2, 17]: 100
Plant response rating, Barnyardgrass [3, 15]: 100
Barnyardgrass plant response rating ([3]; Postemergence, 500 g ai/ha): 100
Plant response rating, Barnyardgrass [3, 16]: 10
Plant response rating, Barnyardgrass [3, 17]: 80
Plant response rating, Corn (corn (Zea mays); [15]): 10
Corn plant response rating (corn (Zea mays); Postemergence, 500 g ai/ha): 50
Plant response rating, Corn (corn (Zea mays); [16]): 0
Plant response rating, Corn (corn (Zea mays); [17]): 0
Plant response rating, Foxtail, Giant [4, 15]: 100
Foxtail, Giant plant response rating ([4]; Postemergence, 500 g ai/ha): 100
Plant response rating, Foxtail, Giant [4, 16]: 40
Plant response rating, Foxtail, Giant [4, 17]: 70
Plant response rating, Wheat [5, 15]: 0
Wheat plant response rating ([5]; Postemergence, 500 g ai/ha): 20
Plant response rating, Wheat [5, 16]: 0
Plant response rating, Wheat [5, 17]: 0
Plant response rating, Morningglory [6, 15]: 100
Morningglory plant response rating ([6]; Postemergence, 500 g ai/ha): 100
Plant response rating, Morningglory [6, 16]: 10
Plant response rating, Morningglory [6, 17]: 50
Plant response rating, Velvetleaf [7, 15]: 100
Velvetleaf plant response rating ([7]; Postemergence, 500 g ai/ha): 100
Plant response rating, Velvetleaf [7, 16]: 40
Plant response rating, Velvetleaf [7, 17]: 70
Plant response rating, Crabgrass, Large [8, 15]: 90
Crabgrass, Large plant response rating ([8]; Postemergence, 500 g ai/ha): 100
Plant response rating, Crabgrass, Large [8, 16]: 30
Plant response rating, Crabgrass, Large [8, 17]: 90
Plant response rating, Flood, Barnyardgrass [9, 18]: 0
Plant response rating, Barnyardgrass [9, 19]: 0
Plant response rating, Barnyardgrass [9, 20]: 0
Barnyardgrass plant response rating [9]: 0
Plant response rating, Flood, Sedge, Umbrella [10, 18]: 90
Plant response rating, Sedge, Umbrella [10, 19]: 0
Plant response rating, Sedge, Umbrella [10, 20]: 0
Sedge, Umbrella plant response rating [10]: 0
Plant response rating, Flood, Ducksalad [11, 18]: 85
Plant response rating, Ducksalad [11, 19]: 0
Plant response rating, Ducksalad [11, 20]: 0
Ducksalad plant response rating [11]: 0
Plant response rating, Flood, Rice (rice (Oryza sativa); [18]): 35
Plant response rating, Rice (rice (Oryza sativa); [19]): 0
Plant response rating, Rice (rice (Oryza sativa); [20]): 20
Rice plant response rating (rice (Oryza sativa)): 0

O=C1CCCC(O)=C1C(=O)c1cnc(-c2cc(F)cc(F)c2)n(C2CCCCC2)c1=O [Compound 181]
Barley plant response rating (0 to 100 scale) ([1]; 13 to 15 days): 40
Plant response rating, Barley [1, 12]: 5
Plant response rating, Barley [1, 13]: 50
Plant response rating, Barley [1, 14]: 55
Plant response rating, Pigweed [2, 15]: 100
Pigweed plant response rating ([2]; Postemergence, 500 g ai/ha): 100
Plant response rating, Pigweed [2, 16]: 100
Plant response rating, Pigweed [2, 17]: 100
Plant response rating, Barnyardgrass [3, 15]: 100
Barnyardgrass plant response rating ([3]; Postemergence, 500 g ai/ha): 100
Plant response rating, Barnyardgrass [3, 16]: 20
Plant response rating, Barnyardgrass [3, 17]: 100
Plant response rating, Corn (corn (Zea mays); [15]): 10
Corn plant response rating (corn (Zea mays); Postemergence, 500 g ai/ha): 50
Plant response rating, Corn (corn (Zea mays); [16]): 0
Plant response rating, Corn (corn (Zea mays); [17]): 0
Plant response rating, Foxtail, Giant [4, 15]: 100
Foxtail, Giant plant response rating ([4]; Postemergence, 500 g ai/ha): 100
Plant response rating, Foxtail, Giant [4, 16]: 30
Plant response rating, Foxtail, Giant [4, 17]: 80
Plant response rating, Wheat [5, 15]: 30
Wheat plant response rating ([5]; Postemergence, 500 g ai/ha): 60
Plant response rating, Wheat [5, 16]: 0
Plant response rating, Wheat [5, 17]: 20
Plant response rating, Morningglory [6, 15]: 30
Morningglory plant response rating ([6]; Postemergence, 500 g ai/ha): 100
Plant response rating, Morningglory [6, 16]: 0
Plant response rating, Morningglory [6, 17]: 30
Plant response rating, Velvetleaf [7, 15]: 100
Velvetleaf plant response rating ([7]; Postemergence, 500 g ai/ha): 100
Plant response rating, Velvetleaf [7, 16]: 70
Plant response rating, Velvetleaf [7, 17]: 100
Plant response rating, Crabgrass, Large [8, 15]: 90
Crabgrass, Large plant response rating ([8]; Postemergence, 500 g ai/ha): 90
Plant response rating, Crabgrass, Large [8, 16]: 90
Plant response rating, Crabgrass, Large [8, 17]: 100
Plant response rating, Barnyardgrass [9, 20]: 70
Barnyardgrass plant response rating [9]: 0
Plant response rating, Sedge, Umbrella [10, 20]: 85
Sedge, Umbrella plant response rating [10]: 75
Plant response rating, Ducksalad [11, 20]: 90
Ducksalad plant response rating [11]: 85
Plant response rating, Rice (rice (Oryza sativa); [20]): 65
Rice plant response rating (rice (Oryza sativa)): 0
